Source: patent publication US20180161291A1, “EXTENDED RELEASE UREA COMPOSITIONS” (Kato Pharmaceuticals, Inc., priority 2015, published 2018)
One block for each compound: values may come before it.

Experiments:
[1] = tested on: non-diabetic patients with symptomatic VMA; assay: Ex-U.S. Phase Ib study: induction of PVD by multiple intravitreal injections of urea; type: in vivo, human; conditions: preliminary
Procedure: (§1) A study was conducted to examine effect of multiple intravitreal injections of small molecule formulation of urea on induction of posterior vitreous detachment (PVD).
(§2) Formulation: Sterile lyophilized Urea, USP-NF in buffered isotonic saline for intravitreal injections. Injectable: Reconstituted with 300 μL sterile water for injection. Dosage form: 100 μL dose contains 18 mg Urea, USP-NF (18% w/v) in glass vial. Storage: room temperature. Stability: stable >24 mo for lyophilized form. […] PVD rate: 25% targeted efficacy.
(§3) Ex-U.S. study design: 3:1 randomized, controlled, Phase Ib, POC & safety study. Patient population: non-diabetic patients with symptomatic VMA. Treatment arm: 20 patients. Control arm: 5 patients. Treatment: high dose arm (Day 0: 100 μL 36% w/v injection; Day 30: 100 μL 36% w/v injection for all unresolved patients); low dose arm (Day 0: 100 μL 18% w/v injection; Day 30: 100 μL 18% w/v injection for all unresolved patients). Follow-up: days 0, 2, 8, 15, 30, 45, 60 and 90.

[2] = tested on: human patients with single or multiple retinal tears; assay: Treatment of retinal tears: intravitreal urea 3 days before pneumatic Retinopexy; type: in vivo
Procedure: All patients received pneumatic Retinopexy treatment 3 days after intravitreal injection of 1.5 mg of urea in 50 μl of aqueous solution prepared according to the formulation set forth in Table II above. […] Within 3-7 days after urea injection, 11/12 patients had developed PVD, only 1/12 patients had not developed PVD. Within 90 days of the urea injection that one patient also developed PVD.
Within 3 days of treatment 9/12 patients had complete retinal reattachment and macular attachment, and within 7 days all 12 patients had complete retinal reattachment and macular attachment. […]
(Tornambe, P. E. et. al. Opthalmology, 1989; 96: 772-783).

[3] = tested on: non-diabetic patients with symptomatic VMA; assay: U.S. Phase Ib study: induction of PVD by multiple intravitreal injections of urea; type: in vivo, human; conditions: preliminary
Procedure: as §1, §2
(§4) U.S. study design: 2:1 randomized, Phase Ib, dose ranging & safety study. Patient population: 30 non-diabetic patients with symptomatic VMA. Treatment: high dose arm (Day 0: 100 μL 18% w/v injection; Day 30: 100 μL 18% w/v injection for all unresolved patients); low dose arm (Day 0: 100 μL 9% w/v injection; Day 30: 100 μL 9% w/v injection for all unresolved patients). Follow-up: days 0, 2, 8, 15, 30, 60, 90 and 180.

[4] = tested on: patient with stage 3 idiopathic macular hole; assay: Treatment of idiopathic macular hole: intravitreal urea followed by expandable gas; type: in vivo, human; conditions: for visual acuity: baseline 20/400; for size of the macular hole: baseline 450 μm
Procedure: The macular defect was classified as a stage 3 macular hole, and the patient's visual acuity was recorded at 20/400 at a baseline time point prior to urea treatment. […] Seven days after the intravitreal urea injection the patient was administered an intravitreal injection of 0.3 ml of expandable gas (C3 F8).
One week after administration of the gas, the size of the macular hole had decreased from 450 μm to a smaller size of 200 μm and the patient's vision had improved from a baseline visual acuity of 20/400 to 20/80. Two weeks post treatment the size of the macular hole had decreased from 450 μm to a smaller size of 90 μm and the patient's vision had improved from a baseline visual Acuity of 20/400 to 20170. Four weeks post treatment the size of the macular hole had decreased from 450 μm to a smaller size of 60 μm and the patient's vision had improved from a baseline visual acuity of 20/400 to 20/60.

[5] = tested on: non-diabetic patients with symptomatic VMA; assay: Multiple intravitreal injections of urea: overall (pooled) results; type: in vivo, human
Procedure: as §1, §2, §4, §3
FIGS. 10 and 11 show the preliminary US and ex-US results, respectively. For the US study, 4 of 10 patients in high-dose group met primary endpoint, 1 of 7 patients in low-dose group met primary endpoint. For the ex-US study, 5 of 11 patients in high-dose group met primary endpoint, 3 of 6 patients in low-dose group met primary endpoint.

[6] = cited from earlier work
[7] = tested on: non sighted patients with optic nerve damage caused by trauma and/or glaucoma; assay: Treatment of neuropathies, double masked placebo controlled dose escalation study; type: in vivo, human
Procedure: In accordance with the present disclosure, urea, thiourea, guanidine and possibly the other compounds of General Formula I above are effective to treat neuropathies 5 (e.g., disorders or damage to nerves). In this example, 33 non sighted patients with optic nerve damage caused by trauma and/or glaucoma, with visual acuity of light perception or no light perception were administered a urea-containing formulation, as disclosed herein. The study was a double masked placebo controlled, randomized, dose escalation study conducted with 33 human patients with optic nerve damage. Patients were randomized into 5 groups, Group 1 of 5 patients. Group 2 of 4 patients, Group 3 of 8 patients, Group 4 of 8 patients and Group 5 of 8 patients. Each patient received a single intravitreal injection of 50 UI of an aqueous treatment solution, as follows:
In Six patients the vision improved from No light perception to light perception, in 2 patients the vision improved from light perception to count fingers at 12 inches, in 2 patients the vision improved from no light perception to 20 20/400 and 20/800 vision and in 2 patients the vision improved from light perception to 20/600 and 20/800 vision. No patients in the placebo group reported any improvement in best corrected visual acuity as measured by ETDRS charts.

[8] = tested on: human patients with diabetes-related nonclearing vitreous hemorrhage; assay: Treatment of vitreous hemorrhage; type: in vivo; conditions: within 2 to 4 weeks after single intravitreal injection of 6% urea, 0.9% sodium chloride; seven patients
Procedure: The formulations and treatments disclosed herein are also effective to treat vitreous hemorrhage. In this example, seven human patients were treated for diabetes-related nonclearing vitreous hemorrhage. Each patient received a single intravitreal injection of 1001l of a formulation containing urea. The formulation used in this example contained 6% urea, 0.9% sodium chloride, and sterile water for injection (qs 100%).

[9] = tested on: human patients with retinitis pigmentosa; assay: Treatment of retinitis pigmentosa, double masked placebo controlled dose escalation study; type: in vivo
Procedure: A double masked placebo controlled, randomized, dose escalation study was done in 32 human patients with retinitis pigmentosa. All patients were treated with a single intravitreal injection of 50 μl of a urea-containing formulation. Three groups of patients received different concentrations of urea. One group received a formulation containing 1.5% urea, 0.9% sodium chloride, and sterile water for injection. A second group received an identical formulation except the formulation contained 3.0% urea. A third group received an identical formulation except the formulation contained 6.0% urea. A placebo group received 50 μl of 0.9% sodium chloride.
Forty-seven percent of the patient reported an increase of at least 3 lines of best corrected visual acuity measured by ETDRS charts, whereas, only 14% of the placebo patients reported an increase of at least 3 lines of best corrected visual acuity measured by ETDRS charts.
There was no dramatic increase in the visual field of the placebo control patients.

[10] = tested on: patients with nonproliferative diabetic retinopathy; assay: Treatment of diabetic retinopathy; type: in vivo, human; conditions: within 2-4 weeks after single intravitreal injection of 3% urea, 0.9% sodium chloride; 69 patients
Source text: Sixty-nine patients with nonproliferative diabetic retinopathy were each administered a single intravitreal injection of 50 UI of a urea formulation containing 3% urea, 0.9% sodium chloride, and sterile water for injection.
The vitreous liquefaction and vitreous collapse in non-proliferative diabetic retinopathy patients would inhibit the growth and proliferation of the blood vessels, and thus inhibit the progression of diabetic retinopathy. All 69 (of the) patients were followed for six months following the procedure.

[11] = tested on: patients with long standing optic nerve damage related to optic nerve tumors; assay: Treatment of optic nerve damage related to optic nerve tumors; type: in vivo, human
Procedure: In another study, three patients with long standing (6 months or longer) optic nerve damage related to optic nerve tumors were treated with a single intravitreal injection of 100 μl of a 6% urea containing formulation. All three patient treated reported a significant improvement in visual acuity after treatment. The patients' visual acuity improved from an average of Count Fingers at 12 inches to 20/200.

[12] = tested on: human patients requiring pars plana vitrectomy; assay: Treatment as adjunct to vitrectomy; type: in vivo
Procedure: In this example, five human patients requiring pars plana vitrectomy for various indications were treated one week prior to vitrectomy with a single intravitreal injection of 100 μl of a urea in aqueous solution. The formulation contained 6% urea, 0.9% sodium chloride, and sterile water for injection (qs 100%). All patients underwent routine vitrectomies 8 to 10 days after the urea injection. The minimum waiting time between the urea injection and the vitrectomy procedure is about 1 day to 3 days.
No vitrectomy cutter was used.

[13] = Storage stability of lyophilized urea formulation; type: physicochemical; conditions: storage at room temperature
Procedure: as §2

[14] = tested on: vitreous and retina of injected eyes; conditions: cited from earlier work
[15] = one week after administration of the gas

- stability of lyophilized form [13]: > 24 mo
Compound: NC(N)=O [urea]
- patients who met primary endpoint ([1]; high-dose group, 100 μL 36% w/v): 5 of 11
- patients who met primary endpoint ([1]; low-dose group, 100 μL 18% w/v): 3 of 6
- adverse effects of the intravitreal injection, ophthalmoscopic and biomicroscopic examination ([2]; 1.5 mg urea in 50 μl, Table II formulation, 12 patients): no adverse effects
- patients with improvement of more than 2 lines of visual acuity (11 letters) ([2]; 6 months post Retinopexy): 64%
- occurrence of new retinal tears with associated retinal detachment ([2]; follow up 90 days): none
- patients with improvement of more than 2 lines of visual acuity (11 letters) ([2]; time not printed in the sentence (1 month post Retinopexy by context)): 64%
- patients who developed PVD ([2]; within 3-7 days after urea injection): 11/12
- patients with complete retinal reattachment and macular attachment ([2]; within 3 days of treatment): 9/12
- patients with complete retinal reattachment and macular attachment ([2]; within 7 days): 12 patients
- patients who met primary endpoint ([3]; high-dose group, 100 μL 18% w/v): 4 of 10
- patients who met primary endpoint ([3]; low-dose group, 100 μL 9% w/v): 1 of 7
- adverse effects of the intravitreal injection, ophthalmoscopic and biomicroscopic examination ([4]; 1.5 mg urea, Table III formulation): no adverse effects
- visual acuity ([4]; four weeks post treatment): 20/60
- size of the macular hole ([4]; four weeks post treatment): 60 μm
- visual acuity [4, 15]: 20/80
- size of the macular hole [4, 15]: 200 μm
- time to complete Posterior Vitreous Detachment (PVD) ([4]; single intravitreal injection 1.5 mg urea, Table III formulation, one patient): ≤ 7 days
- size of the macular hole ([4]; two weeks post treatment): 90 μm
- efficacy ([5]; after a second injection): 40%
- % resolution of VMA ([5]; non-ERM): 44%
- safety: drug related adverse effects ([5]; up to 4 injections): no drug related adverse effects
- efficacy ([5]; with one injection): 30%
- pH of solution ([6]; 10% water solution): 7.2
- stability of the solid ([6]; stored under dry conditions): stable at room temperature
- patients whose vision improved from No light perception to light perception ([7]; in vivo): Six
- patients whose vision improved from light perception to 20/600 and 20/800 vision ([7]; in vivo): 2 patients
- patients whose vision improved from light perception to count fingers at 12 inches ([7]; in vivo): 2 patients
- patients whose vision improved from no light perception to 20/400 and 20/800 vision ([7]; in vivo): 2 patients
- patients with an increase of best corrected visual acuity (ETDRS charts) ([7]; single intravitreal injection of 0.2%, 1.5%, 3.0% or 6.0% urea, no improvement in placebo group): Forty-three
- patients with clearance of vitreous hemorrhage sufficient to treat the retina with photocoagulation [8]: All seven
- patients with an increase of at least 3 lines of best corrected visual acuity (ETDRS charts) ([9]; single intravitreal 50 μl of 1.5%, 3.0% or 6.0% urea, placebo 14%): Forty-seven
- average improvement in the patient's visual field ([9]; urea-treated patients): 10 degrees
- patients with complete vitreous liquefaction and collapse [10]: 69 patients
- average visual acuity after treatment ([11]; from an average of Count Fingers at 12 inches): 20/200
- patients reporting a significant improvement in visual acuity after treatment ([11]; single intravitreal 100 μl of 6% urea, three patients): All three
- decrease in surgical time relative to patients who did not receive urea ([12]; 6% urea, 100 μl intravitreal one week prior to vitrectomy): 70%
- vitreous status at the time of vitrectomy ([12]; by one week after single intravitreal 100 μl of 6% urea, 0.9% sodium chloride, five patients): complete vitreous liquefaction and collapse

Compound: Collagenase
- reported adverse effect on the injected eye ([14]; dispase: 15 minutes after injection): disrupt the outer layers of the retina
- reported effect on the vitreous ([14]; in vivo): liquefy the vitreous
